Measurements reported in patent publication US20080194462A1, “Methods and Compositions for Treatment of Autoimmune Diseases” (Peptimmune, Inc., priority 2004, published 2008).

Experiments:
[1] = tested on: Non-obese diabetic (NOD) mouse; test: Treatment of NOD mice, development of diabetes; type: in vivo; details: 10 μg injected three times a week
Method: NOD mice are obtained from Jackson Laboratories, Bar Harbor, Me., and are used as an experimental system (Shi et al. (2001) Proc. Natl. Acad. Sci. USA 98: 6777-6782). These mice begin to develop diabetes at about 13-15 weeks and data are obtained after about 30 weeks to obtain data, such as a frequency of symptoms for comparison of treated and untreated groups of mice. NOD mice were treated herein with Copaxone®, and no difference was found between the untreated animals and animals treated with Copaxone®. In the experiment, 10 μg of Copaxone® was injected into mice three times a week (equivalent to the human dose on a weight ratio basis. A higher dose, 33 μg Copaxone®/mouse three times a week, is also employed. These experiments test the hypothesis that Copaxone® would be ineffective.

T cells = details: cited from earlier work

Substance: Glatiramer acetate
- difference between untreated and treated NOD mice (diabetes) [1]: no difference
- proportion of an individual's T cells activated (T cells; HLA-DR restricted): 15-20%
- T cell response generated through HLA-DQ molecules (T cells): little response
